Laboratory results taken from publication PMC7736828 (2020).
One block for each compound: values may come before it.

Legend:
[1] = test system: 147 Lla (RNA, riboswitch) AAAAUAGAAUAAAUACUCCACCGGGAGUUAAAUCGUAUGAACGAUUGUUUGCAUUUCAGUAGGUCUGAGAAGAAAUGUAGAUAGUCGUUCUUUUUUUAGCUGAGGAGGCGAAAAUGACUUGGCUAUAUCUACUAAUAGCAGGAAUUU; experiment: in vitro transcription termination assay; details: 1.8 mM NTPs, 37 °C; for EC50: E. coli RNA polymerase, 8 min, co-transcriptional, full-length fraction; for binding: highest tested 10 mM
[2] = test system: 95 Lla (RNA, riboswitch) GGGAAAAUAGAAUAAAUACUCCACCGGGAGUUAAAUCGUAUGAACGAUUGUUUGCAUUUCAGUAGGUCUGAGAAGAAAUGUAGAUAGUCGUUCUU; experiment: in-line probing; details: 20 mM Mg2+, 100 mM K+, 50 mM Tris-HCl pH 8.3 (at 23 °C); for apparent KD: ~48 h; for binding: highest tested 10 mM
[3] = test system: GGAM-5 (Nov 77) (RNA, mRNA element) GGGUGGAUGCGCCGAGAAUAGAGUAGCAGGGUGGUGUCUCCUGCGCCCGUAAGGGUUCUUCCCAGCCACGGCGUCAA; experiment: in-line probing and in vitro transcription; details: 20 mM Mg2+, 100 mM K+; initial experiments, data not shown; highest concentration not stated
[4] = test system: GGAM-3 (Bub 73) (RNA, mRNA element) GGGAUCCAUCCGGGGUACCGCUCCCGCAAGUUGAUCGCGCUCGGUACAAGCGCGAAAUCAGGAGCGGUACGCC; experiment: in-line probing and in vitro transcription; details: 20 mM Mg2+, 100 mM K+; initial experiments, data not shown; highest concentration not stated
[5] = test system: 95 Lla M3 (G72C) (RNA, riboswitch) GGGAAAAUAGAAUAAAUACUCCACCGGGAGUUAAAUCGUAUGAACGAUUGUUUGCAUUUCAGUAGGUCUGACAAGAAAUGUAGAUAGUCGUUCUU; experiment: in-line probing; details: 20 mM Mg2+, 100 mM K+; 50 mM Tris-HCl pH 8.3 (at 23 °C); highest tested 10 mM
[6] = test system: GGAM-6 (Sru 111) (RNA, mRNA element) GGGUCAAUACUCGUAUCGGACGGCAAGCAAUCGCCUGCUUGCCAGAUAAGGUGUCCAUAGACACUGGAACGGGUUAUUCAGGCCAGAUAAGAUCGCAUUCUUAUCUGGCCU; experiment: in-line probing and in vitro transcription; details: 20 mM Mg2+, 100 mM K+; initial experiments, data not shown; highest concentration not stated
[7] = test system: 95 Lla M4 (G62C) (RNA, riboswitch) GGGAAAAUAGAAUAAAUACUCCACCGGGAGUUAAAUCGUAUGAACGAUUGUUUGCAUUUCACUAGGUCUGAGAAGAAAUGUAGAUAGUCGUUCUU; experiment: in-line probing; details: 20 mM Mg2+, 100 mM K+; 50 mM Tris-HCl pH 8.3 (at 23 °C); up to 10 mM; folding differs from wt
[8] = test system: GGAM-4 (Msu 98) (RNA, mRNA element) GGGCGACAGCCUCUCCUCGCGAAACUAAGGUCCGCCCGCUAGGCCGGCCGCGCCUCGACGCGCCGGCUCUCGUCAAUCGAACACGCGCGGUACCCAUG; experiment: in-line probing and in vitro transcription; details: 20 mM Mg2+, 100 mM K+; initial experiments, data not shown; highest concentration not stated
[9] = test system: GGAM-3 (Bub 59) (RNA, mRNA element) GGGAUCCAUCCGGGGUACCGCUCCCGCAAGUUGAUCGCGCUCGGUACAAGCGCGAAAUC; experiment: in-line probing and in vitro transcription; details: 20 mM Mg2+, 100 mM K+; initial experiments, data not shown; highest concentration not stated
[10] = test system: 95 Lla M1 (G66C) (RNA, riboswitch) GGGAAAAUAGAAUAAAUACUCCACCGGGAGUUAAAUCGUAUGAACGAUUGUUUGCAUUUCAGUAGCUCUGAGAAGAAAUGUAGAUAGUCGUUCUU; experiment: in-line probing; details: 20 mM Mg2+, 100 mM K+; 50 mM Tris-HCl pH 8.3 (at 23 °C); highest tested 10 mM
[11] = test system: 95 Lla M2 (U67A) (RNA, riboswitch) GGGAAAAUAGAAUAAAUACUCCACCGGGAGUUAAAUCGUAUGAACGAUUGUUUGCAUUUCAGUAGGACUGAGAAGAAAUGUAGAUAGUCGUUCUU; experiment: in-line probing; details: 20 mM Mg2+, 100 mM K+; 50 mM Tris-HCl pH 8.3 (at 23 °C); highest tested 10 mM
[12] = test system: GGAM-4 (Msu 80) (RNA, mRNA element) GGGAAACUAAGGUCCGCCCGCUAGGCCGGCCGCGCCUCGACGCGCCGGCUCUCGUCAAUCGAACACGCGCGGUACCCAUG; experiment: in-line probing and in vitro transcription; details: 20 mM Mg2+, 100 mM K+; initial experiments, data not shown; highest concentration not stated
[13] = test system: GGAM-2 (Cfi 63) (RNA, mRNA element) GGAAUGGUACGGUCGUACCAGAACCGUGCGCGGGACGGCGGACCUGACACCCGGCGCGCAGCG; experiment: in-line probing and in vitro transcription; details: 20 mM Mg2+, 100 mM K+; initial experiments, data not shown; highest concentration not stated
[14] = test system: GGAM-2 (Cfi 80) (RNA, mRNA element) GGUCGCAGGAAUGGUACGGUCGUACCAGAACCGUGCGCGGGACGGCGGACCUGACACCCGGCGCGCAGCGGUCGCCCACC; experiment: in-line probing and in vitro transcription; details: 20 mM Mg2+, 100 mM K+; initial experiments, data not shown; highest concentration not stated
[15] = test system: 92 Rti (RNA, riboswitch) GGGACAAUUGAAGCAUCUGCCGCCGGGUAGACCAAGAACAAAGCAUGUGCGCCCCUAUCGUUAGGCCAUAGAAGAUAGGGGAAAGCGCAUGC; experiment: in-line probing; details: 20 mM Mg2+, 100 mM K+, 50 mM Tris-HCl pH 8.3 (at 23 °C), ~48 h

Structure (SMILES): N=C(N)NCCC[C@H](N)C(=O)O
- binding [1]: no
- binding [2]: no

Structure (SMILES): NC(N)=O
- binding [1]: no
- binding [2]: no

Results, then the compound that gave them:

- EC50 [1]: 2700 ± 700 µM
- apparent KD ([2]; Figure 5 legend prints ±0.6): 4100 ± 500 µM
Structure (SMILES): CNC(=N)N

- binding [3]: no
- binding [4]: no
- binding [5]: no
- binding [6]: no
- binding [7]: weak
- EC50 [1]: 260 ± 30 µM
- binding [8]: no
- binding [9]: no
- binding [10]: no
- binding [11]: no
- apparent KD [2]: 210 ± 20 µM
- binding [12]: no
- binding [13]: no
- binding [14]: no
- apparent KD [15]: 190 ± 30 µM
Structure (SMILES): N=C(N)N

- EC50 [1]: 3800 ± 500 µM
- apparent KD [2]: 7500 ± 800 µM
Structure (SMILES): N=C(N)NN
